From US6928770B2, “Alternating layer non-edible foraging matrix configurations for crawling arthropods” (priority 1999, dated 2005)
Several values for one entry are separate records, joined by “and”; a condition that tells them apart may be missing. Equal entries are not always repeated. Where two headings read alike, the source gives them in different places.

Experiments:
Type in all cases: in vivo
[1] = tested on: termites (Reticulitermes flavipes (Kollar)); assay: Second experiment: test arena with treated foraging matrix disc at lower rates, termite survival in arenas; settings: for Time for cessation of termite activity: second experiment, activity in the monitors not detected
Source text: (§1) Data from two sets of experiments are included. In the first set of experiments, a total of 3,000 termites were used (2,970 workers and 30 soldiers) in all three replicates. In the second set of experiments, 3,000 termites were used in 4 replicates and 1,400 termites (1,386 workers and 14 soldiers) were used in two replicates for a total of six replicates. Fewer termites from 2 colonies were used because we could not collect enough to complete the replicates if a total of 3000 termites were used. The termites (Reticulitermes flavipes (Kollar)) were field collected from field colonies, separated from debris, and held in the laboratory at the USDA (United States Department of Agriculture) for no more than 14 days before introduction into a test arena for each experimental block. Termites from a different colony were used for each replicate.
(§2) The test arena consisted of Plexiglas sides (45 cm long, by 30 cm wide by 5.5 cm high) taped to a glass bottom (45 cm long, by 30 cm wide, by 0.6 cm high) with clear packing tape, manufactured by Crystal Clear, Manco Inc., Avon, Ohio. The Plexiglas sides were assembled by joining pieces with methylene chloride. Before the Plexiglas sides were taped to the glass bottom, the sides were baked in an oven at 40+/−2° C. for 24 hours to ensure that any volatiles caused by the methylene chloride were removed.
(§3) Builders sand from Unified Classification SP, O'Steen Bros., Inc., of Gainesville, Fla., was oven dried at 60+/−2° C. for at least 24 hours in metal pans. The sand was cooled and sieved using a sieve manufactured from Fisher Scientific Co., USA sieve no. 25, having openings of approximately 0.0278 inches each. The sieve was used to remove large pieces of debris. Two thousand five hundred grams (+/−1 g) of sand were poured into the arena and mixed thoroughly with 250 ml of double filtered, de-ionized water, which brought the moisture content of the sand to 10%. The sand was tamped and leveled.
(§4) Three monitoring stations were placed on top of the moistened builder's sand. The monitors were made of one roll of corrugated cardboard (100 cm by 6.5 cm) that was moistened and stacked into a white PVC coupler having an inner diameter of approximately 7 cm and being approximately 7.3 cm high, manufactured from Lasco of Brownsville, Tenn.
(§5) The non-edible foraging matrix treated with toxicant and used for the testing was a loamy, siliceous, thermic, arenic paleudults soil, which was a common sandy loam native soil from Central Florida. This native soil was initially oven dried at 150+/−2° C. for at least 24 hours, then cooled, then sifted to remove large pieces of organic debris. After treatment with a toxicant, the treated non-edible foraging matrix was formed into a disc for insertion into the monitors after termite activity occurred. The color contrast between the builder's sand, which was light honey color, and the native non-edible foraging matrix, which was a dark brown, was enough to see termites move portions of the treated soil particles from the discs into the tunnels.
The second application had the non-edible foraging matrix sample treated with 2.5 and 25.0 ppm of chlofenapyr, a version entitled Phantom from American Cyanamid of Princeton, N.J. A third application had the non-edible foraging matrix treated with 1.25 and 12.5 ppm of fipronil, a version entitled Termidor, from Rhone-Poulenc of Research Triangle, N.C. It is important to note that the rates used were approximately 10 and 100 times less than the rates use in the first experiment and are also 10 to 100 times less than the rates listed or proposed on the pesticide labels. Thus, the rates used in this experiment was not used for the intended purpose of the chemicals, which was to immediately kill the termites by creating a chemical barrier completely around the structure.
In both experimental set ups, controls were treated with filtered and de-ionized water. […]

subterranean termites [2] = settings: embodiment 2
Method: In the first experiment for embodiment two, oven dried Alachua fine soil was treated with approximately 125.0 ppm chlorfenapyr as the non-edible foraging matrix 550. The mixture 550 was poured into the opening 542 and wet to a moisture level of 10%. The amount of mixture 550 added to opening 542 was recorded for each replicate. Circular plastic containers having a diameter of approximately 11.5 cm by approximately 10 cm thick were filled with approximately 514 g of builder's sand and wet to a moisture level of approximately 10%. Embodiment 2 was inserted into the builder's sand in the plastic cup, 500 subterranean termites were added and the termites were allowed to tunnel for 3 weeks. After 3 weeks, the plastic container setup was disassembled. The number of live termites in the experimental unit was recorded. The amount of mixture 550 displaced from embodiment 2 was measured and recorded. Data were analyzed with a comparison test, between an untreated control sample and four replications(experimental units) of chlorfenatyr(slow acting toxicant).
Alive refers to number of termites alive after three(3) weeks exposure. %Mortality refers to percentage of termites that died after three(3) weeks exposure. Soil Moved(g) refers to total amount soil removed by the termites per each replication(per experimental unit). […] An average of 99.95% of the termites in treated units died, compared with 8.8% mortality in the control unit. […] Total untreated mixture 550 moved from embodiment 2 to the surrounding area was approximately 3.93 g, compared with an average of approximately 1.49 g of mixture 550 treated with approximately 125.0 ppm chlorfenapyr.
(§6) In the second experiment, mixture 550 was tested at a concentration of approximately 12.5 ppm chlorfenapyr. Experimental procedure was identical to what is listed above.

[3] = tested on: termites (Reticulitermes flavipes (Kollar)); assay: First experiment: test arena with three monitors, treated non-edible foraging matrix disc in one monitor
Source text: as §1, §2, §3, §4, §5
In both sets of experiments, three different non-edible foraging matrix treatment applications were prepared using novel selected amounts of termite treatment chemicals. The difference between the first experiment and the second experiment was the rates used. […] The second application had the non-edible foraging matrix sample treated with 250 ppm of chlorfenapyr, a version entitled Phantom from American Cyanamid of Princeton, N.J. A third application had the non-edible foraging matrix treated with 125 ppm of fipronil, a version entitled Termidor, from Rhone-Poulenc of Research Triangle, N.C.
In both experimental set ups, controls were treated with filtered and de-ionized water. The treated non-edible foraging matrix was air dried for 7 days and stored in sealed plastic bags until ready for use. […]

subterranean termites [4] = settings: embodiment 3
Method: In the first experiment for embodiment 3, oven dried Alachua fine soil was treated with approximately 125.0 ppm chlorfenapyr as the non-edible foraging matrix 550. The mixture 550 was poured into the opening 542 and wet to a moisture level of 10%. The amount of mixture 550 added to opening 542 was recorded for each replicate. Plastic containers (approximately 11.5 cm diameter, approximately 10 cm high) were filled with approximately 514 g of builder's sand and wet to a moisture level of approximately 10%. Embodiment 3 was assembled and inserted into the builder's sand in the plastic cup, 500 subterranean termites were added and the termites were allowed to tunnel for 3 weeks. After 3 weeks, the plastic container setup was disassembled. The number of live termites in the experimental unit was recorded. The amount of mixture 550 displaced from embodiment 2 was measured and recorded.
Alive refers to number of termites alive after three(3) weeks exposure. %Mortality refers to percentage of termites that died after three(3) weeks exposure. Soil Moved(g) refers to total amount soil removed by the termites per each replication(per experimental unit).
as §6

[5] = approximately 12.5 ppm chlorfenapyr
[6] = approximately 125.0 ppm chlorfenapyr

Compound: CCOCn1c(-c2ccc(Cl)cc2)c(C#N)c(Br)c1C(F)(F)F [Chlorfenapyr, chlorfenapyr]
- Mean ± SE percent survival of termites ([1]; chlorfenapyr 2.5 ppm foraging matrix, after 8 weeks): 9.33 ± 5.05a^1%
- Mean ± SE percent survival of termites ([1]; chlorfenapyr 2.5 ppm foraging matrix, after 8 weeks, listed as chlorfenapyr): 9.33%
- Mean ± SE percent survival of termites ([1]; chlorfenapyr 25.0 ppm foraging matrix, after 8 weeks): 0.16 ± 0.16b %
- Mean ± SE percent survival of termites ([1]; chlorfenapyr 25.0 ppm foraging matrix, after 8 weeks, listed as chlorfenapyr): 0.16%
- Termite kill (in words) ([1]; chlorfenapyr at 25 ppm): killed virtually all the termites
- Time for cessation of termite activity [1]: 8 weeks
- Amount of mixture 550 moved, treated compared with untreated (subterranean termites [2]; [5]): no significant difference
- Mortality compared with untreated replications (subterranean termites [2]; [5]): significantly higher
- Average percentage of termites in treated units that died (subterranean termites [2]; approximately 12.5 ppm chlorfenapyr, approximately 13.2% in untreated control units): approximately 85.3%
- Amount of mixture 550 moved, treated compared with untreated (subterranean termites [2]; [6]): significantly more of the untreated mixture 550 was moved
- Mortality compared with untreated replications (subterranean termites [2]; [6]): significantly higher
- Average percentage of termites in treated units that died (subterranean termites [2]; approximately 125.0 ppm chlorfenapyr, 3 weeks, 8.8% in control unit): 99.95%
- % Mortality (subterranean termites [2]; approximately 125.0 ppm chlorfenapyr, after 3 weeks exposure, per replication): 100.0% and 99.8%
- Amount of mixture 550 moved, 12.5 ppm compared with 125.0 ppm (subterranean termites [2]; chlorfenapyr 12.5 ppm vs 125.0 ppm): significantly more mixture 550 treated at 12.5 ppm was moved
- Mortality, approximately 125 ppm compared with approximately 12.5 ppm (subterranean termites [2]; chlorfenapyr 125 ppm vs 12.5 ppm): no significant differences
- Mean ± SE number of termites in monitors ([3]; foraging matrix 250 ppm chlorfenapyr, week 1): 100 ± 11.9
- Mean ± SE number of termites in monitors ([3]; foraging matrix 250 ppm chlorfenapyr, week 2): 60.7 ± 12.9
- Mean ± SE number of termites in monitors ([3]; foraging matrix 250 ppm chlorfenapyr, week 3): 21.3 ± 12.2
- Mean ± SE number of termites in monitors ([3]; foraging matrix 250 ppm chlorfenapyr, week 4): 10.9 ± 7.6
- Mean ± SE number of termites in monitors ([3]; foraging matrix 250 ppm chlorfenapyr, week 5): 3.5 ± 3.3
- Mean ± SE number of termites in monitors ([3]; foraging matrix 250 ppm chlorfenapyr, week 6): 0.8 ± 0.8
- Mean ± SE number of termites in monitors ([3]; foraging matrix 250 ppm chlorfenapyr, week 7): 0 ± 0
- Mean ± SE number of termites in monitors ([3]; foraging matrix 250 ppm chlorfenapyr, week 8): 0 ± 0
- Alive (number of termites alive) (subterranean termites [4]; 125.0 ppm chlorfenapyr, 500 termites, after 3 weeks exposure, per replication): 0
- % Mortality (subterranean termites [4]; 125.0 ppm chlorfenapyr, after 3 weeks exposure, per replication): 100.0%
- Amount of mixture 550 moved, treated compared with untreated (subterranean termites [4]; [5]): significantly less treated mixture 550 moved
- Mortality compared with untreated controls (subterranean termites [4]; [5]): no significant difference
- % Mortality (subterranean termites [4]; approximately 12.5 ppm chlorfenapyr, after 3 weeks exposure, per replication): 100%
- Average percentage of termites in treated units that died (subterranean termites [4]; approximately 12.5 ppm chlorfenapyr, approximately 18.5% in untreated control units): approximately 37.7%
- Amount of mixture 550 moved, treated compared with untreated (subterranean termites [4]; [6]): significantly more of the untreated mixture 550 was moved
- Average percentage of termites in treated units that died (subterranean termites [4]; approximately 125.0 ppm chlorfenapyr, approximately 9.6% in control unit): 100.0%

Compound: N#Cc1nn(-c2c(Cl)cc(C(F)(F)F)cc2Cl)c(N)c1[S+]([O-])C(F)(F)F (stereo not drawn) [Fipronil, fipronil]
- Mean ± SE percent survival of termites ([1]; fipronil 1.25 ppm foraging matrix, after 5 weeks): 0.51 ± 0.30b %
- percent survival ([1]; fipronil 12.5 and 1.25 ppm foraging matrix, 39% in untreated arenas): 0.3-0.5%
- Mean ± SE percent survival of termites ([1]; fipronil 12.5 ppm foraging matrix, after 5 weeks): 0.30 ± 0.29b %
- Termite kill (in words) ([1]; fipronil at 1.25 and 12.5 ppm): killed virtually all the termites
- Time for cessation of termite activity [1]: 5 weeks
- Mean ± SE number of termites in monitors ([3]; foraging matrix 125 ppm fipronil, week 1): 73.8 ± 11.1
- Mean ± SE number of termites in monitors ([3]; foraging matrix 125 ppm fipronil, week 2): 44.3 ± 18.8
- Mean ± SE number of termites in monitors ([3]; foraging matrix 125 ppm fipronil, week 3): 14.6 ± 8.0
- Mean ± SE number of termites in monitors ([3]; foraging matrix 125 ppm fipronil, week 4): 6.4 ± 3.4
- Mean ± SE number of termites in monitors ([3]; foraging matrix 125 ppm fipronil, week 5): 2.6 ± 1.6
- Mean ± SE number of termites in monitors ([3]; foraging matrix 125 ppm fipronil, week 6): 0.3 ± 0.3
- Mean ± SE number of termites in monitors ([3]; foraging matrix 125 ppm fipronil, week 7): 0 ± 0
- Mean ± SE number of termites in monitors ([3]; foraging matrix 125 ppm fipronil, week 8): 0 ± 0

Compound: O=[N+]([O-])NC1=NCCN1Cc1ccc(Cl)nc1 [Imidacloprid, imidacloprid]
- percent survival ([1]; imidacloprid 0.5 and 5.0 ppm foraging matrix, 23% in untreated arenas): 17%
- Mean ± SE percent survival of termites ([1]; imidacloprid 0.5 ppm foraging matrix, after 8 weeks): 17.13 ± 11.61a %
- Mean ± SE percent survival of termites ([1]; imidacloprid 5.0 ppm foraging matrix, after 8 weeks): 17.57 ± 9.36a %
- Time for cessation of termite activity [1]: 8 weeks
- Termites in the monitors ([3]; 50 ppm imidacloprid, first experiment, summary of Table 1): 54 termites
- Mean ± SE number of termites in monitors ([3]; foraging matrix 50 ppm imidacloprid, week 1): 82.0 ± 2.7
- Mean ± SE number of termites in monitors ([3]; foraging matrix 50 ppm imidacloprid, week 2): 67.5 ± 0.1
- Mean ± SE number of termites in monitors ([3]; foraging matrix 50 ppm imidacloprid, week 3): 45.7 ± 14.9
- Mean ± SE number of termites in monitors ([3]; foraging matrix 50 ppm imidacloprid, week 4): 13.7 ± 2.9
- Mean ± SE number of termites in monitors ([3]; foraging matrix 50 ppm imidacloprid, week 5): 8.0 ± 3.7
- Mean ± SE number of termites in monitors ([3]; foraging matrix 50 ppm imidacloprid, week 6): 3.2 ± 3.0
- Mean ± SE number of termites in monitors ([3]; foraging matrix 50 ppm imidacloprid, week 7): 1.4 ± 1.4
- Mean ± SE number of termites in monitors ([3]; foraging matrix 50 ppm imidacloprid, week 8): 1.8 ± 0.9
